# Data published in ChEMBL document CHEMBL1141631, “Novel ketooxazole based inhibitors of fatty acid amide hydrolase (FAAH)” (Bioorg Med Chem Lett, 2008).
# The source made the active and inactive calls. The rule behind the calls is not given here.
# Legend:
# [1] = molecular target: T1, Fatty-acid amide hydrolase 1 (Homo sapiens, UniProt O00519); assay: Inhibition of human FAAH
# T1 sequence (O00519 whole entry): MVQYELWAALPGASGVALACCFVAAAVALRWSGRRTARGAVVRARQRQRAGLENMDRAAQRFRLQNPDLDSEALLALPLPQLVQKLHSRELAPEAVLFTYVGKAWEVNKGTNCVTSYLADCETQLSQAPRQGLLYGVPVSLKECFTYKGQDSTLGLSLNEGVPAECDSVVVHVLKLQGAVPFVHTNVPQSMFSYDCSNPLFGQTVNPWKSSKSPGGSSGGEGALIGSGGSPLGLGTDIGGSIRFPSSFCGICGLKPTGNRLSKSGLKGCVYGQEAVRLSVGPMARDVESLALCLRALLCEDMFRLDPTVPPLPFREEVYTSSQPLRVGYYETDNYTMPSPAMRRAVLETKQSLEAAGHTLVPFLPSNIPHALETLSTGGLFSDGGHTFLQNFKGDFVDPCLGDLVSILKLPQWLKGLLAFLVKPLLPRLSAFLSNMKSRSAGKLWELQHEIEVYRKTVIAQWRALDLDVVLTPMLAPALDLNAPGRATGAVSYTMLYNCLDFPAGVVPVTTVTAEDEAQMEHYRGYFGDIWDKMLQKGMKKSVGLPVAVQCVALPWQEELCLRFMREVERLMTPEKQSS
# [2] = Aqueous solubility in water; format: physicochemical
# [3] = species: Rattus norvegicus; assay: Reversal of tactile allodynia in spinal nerve ligated rat model; format: functional
# [4] = Plasma concentration in spinal nerve ligated rat model at 4 mg/kg, iv followed by infusion of 6 mg/kg/hr after 6 hrs; format: ADME, organism-based
# [5] = test system: Rattus norvegicus; assay: Reversal of tactile allodynia in spinal nerve ligated rat model at 4 mg/kg, iv followed by infusion of 6 mg/kg/hr after 6 hrs; format: functional, organism-based
# [6] = species: Rattus norvegicus; assay: Toxicity in spinal nerve ligated rat model assessed as motor impairment by rotarod test; format: organism-based; details: in vivo
compound,measurement,setting,value
O=C(CCCC1CCN(C(=O)CCC2CCCCC2)CC1)c1ncco1,IC50,[1],3 nM
COc1ccc(CN2CCC(CCCC(=O)c3ncco3)CC2)cc1,IC50,[1],130 nM
O=C(CCCC1CCNCC1)c1ncco1,IC50,[1],5700 nM
O=C(CCCCCCc1ccccc1)c1ncc(-c2ccccn2)o1,solubility,[2],16 µg/mL
CC(C)S(=O)(=O)N1CCC(CCCC(=O)c2ncco2)CC1,IC50,[1],140 nM
O=C(CCCC1CCN(C(=O)c2ccccc2)CC1)c1ncco1,IC50,[1],77 nM
CC(C)c1ccc(CN2CCC(CCCC(=O)c3ncco3)CC2)cc1,ED50,[3],7.3 mg/kg
same,solubility,[2],> 400 µg/mL
same,concentration at 6 h,[4],1200 nM
same,Activity,[5],Active
same,IC50,[1],3.6 nM
same,Activity,[6],Non-toxic
CC(C)(C)OC(=O)N1CCC(CCCC(=O)c2ncco2)CC1,IC50,[1],2 nM
O=C(CCCC1CCN(C(=O)CCc2ccccc2)CC1)c1ncco1,IC50,[1],22 nM
O=C(CCCCCCc1ccccc1)c1ncco1,IC50,[1],43 nM
COc1cccc(CN2CCC(CCCC(=O)c3ncco3)CC2)c1,IC50,[1],34 nM
O=C(CCCC1CCN(S(=O)(=O)c2ccccc2)CC1)c1ncco1,IC50,[1],2.5 nM
O=C(CCCC1CCN(C(=O)OCc2ccccc2)CC1)c1ncco1,IC50,[1],4 nM
